Where two headings read alike, the source gives them in different places.
How the values were obtained:
[1] = target: T1, HIF-2α HIS TAG-PASB Domain (Homo sapiens, UniProt Q99814); assay: HIF-2α Scintillation Proximity Assay (SPA); assay type: binding
T1 construct: 100 nM HIF-2α HIS TAG-PASB Domain
Outline: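 IC50 values rest on percent inhibition, where the sample signal is scaled between high and low controls. Wells contain about 100 μL: compound dispensed as 2 μL of DMSO solution, 88 μL protein-probe mix and 10 μL of beads.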

786-O cells = assay: VEGF ELISA Assay; assay type: cell-based; conditions: Homo sapiens, 786-0
Protocol: Each concentration was plated in duplicate. About 20 hours later, medium was removed by suction and each well was supplied with 180 μL of growth medium. About 20 μl freshly-made 10× compound stocks were added to each well. […] The EC50 was calculated by GraphPad Prism using the dose-response-inhibition (four parameter) equation. The cell-seeded plate was then subjected to CellTiter-Glo luminescence cell viability assay (Promega) by adding 50 μL of Celltiter Glo reagent into each well and shaking the plate for 8 minutes at 550 rpm (Thermomixer R, Eppendorf) then the luminescence signal immediately read in a plate reader (3 second delay, 0.5 second/well integration time, Synergy 2 multi Detection Microplate reader).

786-O-Hif-Luc cells = assay: Luciferase Assay (HIF responsive elements reporter)
Protocol: A pool of infected cells were then selected against 2 μg/mL of puromycin (P8833, Sigma) for 10 days followed by limited dilution to select single clones. […] Each concentration was tested in triplicate. After about 24 hours, luciferase activity was determined using ONE-Glo Luciferase Assay Reagent (E6110, Promega) following the manufacturer's recommended procedure. EC50 were calculated using Dotmatics software.

[2] = Scintillation Proximity Assay IC50 (nM)
[3] = read-out: Scintillation Proximity Assay IC50
[4] = read-out: Mean Luciferase EC50 (nM), 786-O-Hif-Luc cells

T1 sequence (Q99814 240-350 limits assumed): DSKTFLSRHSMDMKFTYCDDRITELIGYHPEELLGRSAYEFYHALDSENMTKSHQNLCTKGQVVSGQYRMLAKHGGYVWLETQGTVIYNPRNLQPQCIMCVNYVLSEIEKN

Row | Structure (SMILES) | IC50 [1, 2] | EC50 (786-O cells) | EC50 (786-O-Hif-Luc cells; read-out: Mean Luciferase EC50 (nM)) | IC50 [1, 3] | EC50 (786-O-Hif-Luc cells; [4])
1 | O=S1(=O)c2ccc(Oc3cc(F)cc(Cl)c3)c(Br)c2C(O)C1(F)F (stereo not shown) [Compound 355] | < 50 nM | 50 to 249 nM |  |  | 
2 | O=S(=O)(c1ccc(Oc2cc(F)cc(Cl)c2)c(C(F)F)c1)C(F)(F)F [Compound 124] |  | 250 to 1000 nM | 250 to 1000 nM |  | 
3 | O=S(=O)(c1ccc(Oc2cc(F)cc(Cl)c2)c(Br)c1Cl)C(F)(F)F [Compound 179] |  | > 1000 nM |  | < 50 nM | 
4 | O=S(=O)(c1ccc(Oc2cc(F)cc(Cl)c2)c(Br)c1CO)C(F)(F)F [Compound 102] |  | 250 to 1000 nM |  | 50 to 249 nM | 
5 | O=S(=O)(c1ccc(Oc2cc(F)cc(Cl)c2)c2c1[C@H](O)CC2)C(F)F [Compound 1] |  | 250 to 1000 nM |  |  | 
6 | N#Cc1cc(S(=O)(=O)C(F)F)ccc1Oc1cc(F)cc(Cl)c1 [Compound 133] |  | > 1000 nM |  | 250 to 1000 nM | 
7 | N#Cc1ccc(Oc2cc(F)cc(F)c2)c2c1[C@H](O)C(F)(F)C2 [Compound 67] |  | 50 to 249 nM |  |  | 
8 | N#Cc1cc(F)cc(Oc2ccc(S(=N)(=O)CF)c3c2CC(F)(F)[C@H]3O)c1 (stereo partly shown) [Compound 274] |  | > 1000 nM |  | 50 to 249 nM | 
9 | O=S(=O)(c1ccc(Oc2cc(F)cc(Cl)c2)c2c1C(O)CC2)C(F)F (stereo not shown) [Compound 17] |  | 50 to 249 nM |  |  | 
10 | CCCOc1ccc(S(=O)(=O)C(F)(F)F)c2c1CC(F)(F)C2O (stereo not shown) [Compound 584] |  |  |  | 50 to 249 nM | < 50 nM
11 | CS(=O)(=O)c1ccc(OC2CC(F)(F)C2)c2c1[C@H](O)C(F)(F)[C@H]2F [Compound 575, (1S,3S)-4-(3,3-difluorocyclobutoxy)-2,2,3-trifluoro-7-(methylsulfonyl)-2,3-dihydro-1H-inden-1-ol] |  |  |  | 250 to 1000 nM | > 1000 nM
12 | O=C1c2c(S(=O)(=O)C(F)F)ccc(Oc3ccc(F)c(F)c3)c2CC1(F)F [Compound 195] |  |  |  | 50 to 249 nM | > 1000 nM
13 | O=S(=O)(c1ccc(-c2cccc(Cl)c2)c2c1[C@H](O)C(F)(F)C2)C(F)(F)F [Compound 485, (S)-4-(3-chlorophenyl)-2,2-difluoro-7-((trifluoromethyl)sulfonyl)-2,3-dihydro-1H-inden-1-ol] |  |  |  | < 50 nM | > 1000 nM
14 | CC(=O)c1c(S(=O)(=O)C(F)(F)F)ccc(Oc2cc(F)cc(Cl)c2)c1Br [Compound 104] |  |  |  | 250 to 1000 nM | > 1000 nM
15 | NCc1c(S(=O)(=O)C(F)F)ccc(Oc2cc(F)cc(Cl)c2)c1Br [Compound 85] | > 1000 nM |  |  |  | > 1000 nM
16 | OC1CCc2c(OCC(F)F)ccc(C(F)(F)F)c21 (stereo not shown) [Compound 696] |  |  |  | 50 to 249 nM | 50 to 249 nM
17 | N#Cc1cc(F)cc(Oc2ccc(S(=O)(=O)C(F)F)cc2C#N)c1 [Compound 134] |  |  |  | 250 to 1000 nM | > 1000 nM
18 | N#Cc1cc(F)cc(Oc2ccc(S(=N)(=O)C(F)(F)F)c3c2CCC3O)c1 (stereo not shown) [Compound 258] |  |  |  | 250 to 1000 nM | > 1000 nM
19 | CC(Oc1ccc(S(=O)(=O)C(F)(F)F)c2c1CC(F)(F)C2O)C1CC1 (stereo not shown) [Compound 746] |  |  |  | < 50 nM | < 50 nM
20 | Cc1cc(Oc2cc(F)cc(C#N)c2)c2c(c1S(C)(=O)=O)C(O)C(F)(F)C2 (stereo not shown) [Compound 213] |  |  |  | 250 to 1000 nM | 250 to 1000 nM
21 | CS(=O)(=O)c1ccc(Oc2cc(F)cc(C#N)c2)c2c1[C@H](O)[C@H](F)[C@@H]2O [Compound 296] |  |  |  | > 1000 nM | > 1000 nM
22 | CC1(C)CCC(=O)[C@H](c2ccc(S(=O)(=O)C(F)(F)F)c3c2CC(F)(F)[C@H]3O)C1 [Compound 542] |  |  |  | 250 to 1000 nM | > 1000 nM
23 | N#Cc1cc(F)cc(Oc2ccc(S(N)(=O)=O)c3c2C[C@@H](F)[C@H]3O)c1 [Compound 334] |  |  |  | 50 to 249 nM | 50 to 249 nM
24 | N#Cc1c(Oc2cc(F)cc(F)c2)ccc2c1C(O)C(F)S2(=O)=O (stereo not shown) [Compound 390] |  |  |  | > 1000 nM | 250 to 1000 nM
25 | CS(=O)(=O)c1ccc(OCC(F)F)c2c1[C@H](O)C(F)(F)[C@@H]2F [Compound 755] |  |  |  | 50 to 249 nM | > 1000 nM
26 | CCCOc1ccc(C(F)(F)F)c2c1CC(F)(F)[C@H]2O [Compound 704] |  |  |  | < 50 nM | < 50 nM
